Source: patent US20020002171A1, “Materials and methods for killing nematodes and nematode eggs” (priority 2000, published 2002)

System: Caenorhabditis elegans
Test: C. elegans L1 nematicidal dose response in 96-well plates, 5 day visual score (Example 2; same procedure for Example 7, Table 3)
Assay type: in vivo
Parameters: key to 5 Day Visual Score V1 / 5 Day Visual Score V2 / 5 Day Visual Score V3 / 5 Day Visual Score V4 / 5 Day Visual Score V6 / 5 Day Visual Score V5 / Initial HTS Run Visual Score / Follow-up HTS Run Visual Score: Dead: only stiff L1s (no movement); Dead (L4): worms are dead, but at a later larval stage; majority of worms are L1 (based on size) worms move when plate is tapped; majority of worms are L2 (based on size); majority of worms are L3 (based on size); majority of worms are L4 (based on size); AD: majority of worms are adult; #AD: 5 adult worms or less; B!: sterile (0-25 progeny); B: low broodsize (25-100 progeny); ˜B: moderate broodsize (100-250 progeny); <: reduced broodsize (250-500 progeny); OK: no effect (˜1000+ progeny)
Settings: for 5 Day Visual Score V1 / 5 Day Visual Score V3 / 5 Day Visual Score V4 / 5 Day Visual Score V5 / 5 Day Visual Score V6 / 5 Day Visual Score V2: dose response; for 5 Day Visual Score V1: dilution V1, 5 day; for 5 Day Visual Score V3: dilution V3, 5 day; for 5 Day Visual Score V4: dilution V4, 5 day; for 5 Day Visual Score V5: dilution V5, 5 day; for 5 Day Visual Score V6: dilution V6, 5 day; for 5 Day Visual Score V2: dilution V2, 5 day
Summary of the method: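 L1 larvae, 20 per well in NGM with 1% E. coli HB101 and antibiotic/antimycotic, exposed to six 3-fold dilutions from 70 μM down to 0.3 μM (1.4% DMSO at top). Held at 20° C; viability scored visually under 100× dissecting microscope on day 5.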

Compound	Follow-up HTS Run % Run [%]	Follow-up HTS Run Visual Score	Follow-up HTS Run mOD [mOD]	Initial HTS Run % Run [%]	Initial HTS Run mOD [mOD]	5 Day Visual Score V1	5 Day Visual Score V3	5 Day Visual Score V4	5 Day Visual Score V5	5 Day Visual Score V6	Initial HTS Run Visual Score	5 Day Visual Score V2
COc1ccc(CCN(C)c2nc(NCc3ccc(C(F)(F)F)cc3)ns2)cc1OC [compound 317]	111	L2	179	108	119	Dead	OK (no effect (˜1000+ progeny))	OK (no effect (˜1000+ progeny))	OK (no effect (˜1000+ progeny))	OK (no effect (˜1000+ progeny))	–	–
Cc1cccc(C)c1N1CCN(c2nc(NCc3ccccc3C(F)(F)F)ns2)CC1 [compound 318]	111	B (low broodsize (25-100 progeny))	178	101	111	B (low broodsize (25-100 progeny))	OK (no effect (˜1000+ progeny))	OK (no effect (˜1000+ progeny))	OK (no effect (˜1000+ progeny))	OK (no effect (˜1000+ progeny))	B!-Clear-Few Eggs	˜B (moderate broodsize (100-250 progeny))
CCCCN(CC)c1nc(NCc2ccc(C(F)(F)F)cc2)ns1 [compound 319]	127	L2	205	121	133	–	OK (no effect (˜1000+ progeny))	OK (no effect (˜1000+ progeny))	OK (no effect (˜1000+ progeny))	OK (no effect (˜1000+ progeny))	L2	˜B (moderate broodsize (100-250 progeny))
CCN(Cc1ccccc1)c1nc(NCc2ccccc2C(F)(F)F)ns1 [compound 320]	118	–	190	102	112	L4#AD/B!	OK (no effect (˜1000+ progeny))	OK (no effect (˜1000+ progeny))	OK (no effect (˜1000+ progeny))	OK (no effect (˜1000+ progeny))	–	< (reduced broodsize (250-500 progeny))
C=CCN(CC=C)c1nc(NCc2ccccc2C(F)(F)F)ns1 [compound 321]	116	–	186	95	105	–	–	OK (no effect (˜1000+ progeny))	OK (no effect (˜1000+ progeny))	OK (no effect (˜1000+ progeny))	Dead/2L2	–
CN(CCc1ccccc1)c1nc(NCc2ccccc2C(F)(F)F)ns1 [compound 322]	111	B (low broodsize (25-100 progeny))	178	94	103	B! (sterile (0-25 progeny))	OK (no effect (˜1000+ progeny))	OK (no effect (˜1000+ progeny))	OK (no effect (˜1000+ progeny))	OK (no effect (˜1000+ progeny))	B!-Clear-Few Eggs	–
CN(Cc1ccccc1)c1nc(NCc2ccccc2C(F)(F)F)ns1 [compound 323]	120	L4/AD/B!	193	110	121	L4#AD/B!	OK (no effect (˜1000+ progeny))	< (reduced broodsize (250-500 progeny))	OK (no effect (˜1000+ progeny))	OK (no effect (˜1000+ progeny))	L3/L4/AD/B!-Clear	–
Fc1ccc(N2CCN(c3nc(NCc4ccccc4)ns3)CC2)cc1 [compound 324]	34	–	54	114	125	L1	–	OK (no effect (˜1000+ progeny))	< (reduced broodsize (250-500 progeny))	OK (no effect (˜1000+ progeny))	–	–
CCN(c1nc(NCc2ccccc2)ns1)C1CCCCC1 [compound 325]	111	L4/AD/B	179	103	113	–	< (reduced broodsize (250-500 progeny))	< (reduced broodsize (250-500 progeny))	< (reduced broodsize (250-500 progeny))	OK (no effect (˜1000+ progeny))	L3/L4/AD/B	#AD/˜B
CCN(Cc1ccccc1)c1nc(NCc2ccccc2)ns1 [compound 326]	110	–	177	95	105	–	–	OK (no effect (˜1000+ progeny))	OK (no effect (˜1000+ progeny))	OK (no effect (˜1000+ progeny))	–	–
C=CCN(CC=C)c1nc(NCc2ccccc2)ns1 [compound 327]	106	–	171	105	115	Dead	˜B (moderate broodsize (100-250 progeny))	OK (no effect (˜1000+ progeny))	OK (no effect (˜1000+ progeny))	OK (no effect (˜1000+ progeny))	L2/L3(Dead L3)	B (low broodsize (25-100 progeny))
CN(Cc1ccccc1)c1nc(NCc2ccccc2)ns1 [compound 328]	121	–	195	120	132	L1	–	–	< (reduced broodsize (250-500 progeny))	–	–	L1
Cc1cccc(C)c1N1CCN(c2nc(NC3CCCCCCCCCCC3)ns2)CC1 [compound 329]	78	Dead	125	100	110	Dead	–	OK (no effect (˜1000+ progeny))	OK (no effect (˜1000+ progeny))	OK (no effect (˜1000+ progeny))	Dead (L2/L3)	Dead
